Experimental data published in patent publication US20160193240A1, “Ulmoside-A: Useful For Prevention Or Cure Of Metabolic Diseases” (COUNCIL OF SCIENTIFIC & INDUSTRIAL RESEARCH, priority 2013, published 2016).
Marks after values point to notes of the source that are not given here.

Key:
[1] = system: Human SVF; assay: Brown adipose marker protein level in human stromal vascular fractions; format: cell-based; conditions: differentiated in presence of ULMA, 21 d
Method: C. Cells from identical set of experiments as described in FIGS. 5A and 5B or human SVFs prepared by collagenase digestions were analyzed by western blot analysis for determination of UCP-1, UCP-2 and PGC-1α protein level. Beta-actin was used as a loading control. Data is representative of three independent experiments.
Mouse stromal vascular fractions (SVF) from epididymal fat pad were prepared using standard collagenase digestion method. Human SVF was prepared from human lipoaspirates (subcutaneous) collected from an obese individual undergoing liposuction following approval of Institutional Ethical Committee. To isolate SVFs, epidymal fat pads tissue or lipoaspirates were washed 6× in PBS and then were dispensed in tissue culture flasks. 0.2% sterile collagenase (Sigma) solution containing 1× antibiotic-antimycotic (Invitrogen) was then added to the adipose and the flasks were shaken vigorously for 10 seconds. The flasks were then incubated at 37° C. on a shaker for 2 hours with manual shaking of the flasks for 5-10 seconds every 15 min. After completion of digestion, FBS was added to the final concentration of 10% to the flasks, mixed and the collagenase digested tissue were then dispensed in 50 ml conical tubes and were centrifuged at 400 g for 10 min at room temp. […]

[2] = system: AdipoRs; assay: Competitive radio-ligand binding assay with 125I-adiponectin on C2C12 myotubes; design: species or system mouse; conditions: 10^-11 M to 10^-6 M unlabeled ULMA, 12 hours, 4° C.
Method: C. ULMA competes with ^125I-globular adiponectin (gAd) for binding to AdipoRs. C2C12 myotubes in 12 well plates were incubated with 2 μl of 10 uCi/ml ^125I-adiponectin (this amount gives 50% binding to the cells) in ice-cold PBS and 0.1% bovine serum albumin for 12 h in presence or absence of different doses of unlabeled ULMA (10^−11M, 10^−10 M, 10^−9 M, 10^−8 M, 10^−7M, 10^−6M) at 4° C. The cells were then washed 20 times in PBS and then lysed. 5 μl of the lysate was used for protein estimation using standard Bradford assay and rest of the lysate was used for measuring radioactivity in a gamma-counter (Cole Palmer). The count per minute was normalized with protein concentration and plotted as % binding compared to wells treated with vehicle only (0.1% vol/vol DMSO). Data represents mean±SEM from three experiments performed in triplicates.
Competitive Radio-Ligand Binding Assay
Further validation of AdipoR-ULMA interaction was obtained using a competitive radio-ligand binding assay. […] 5 μl of the lysate was used for protein estimation using standard Bradford assay and rest of the lysate was used for measuring radioactivity in a gamma-counter (Cole Palmer). […]

[3] = system: wistar rats; assay: Dexamethasone induced loss of body weight and death in rats; conditions: for Final body weight (g) / Survival/group (%): 2 weeks
Method: All animal experiments were conducted in accordance with current legislation on animal experiments [Institutional Animal Ethical Committee (IAEC)] at C.D.R.I. In all animal experiments, rats were individually housed at 21° C., in 12-h light:12-h dark cycles. All animals had access to normal chow diet and water ad libitum.
Food intake was measured daily and the rats were weighed each week. The rats were fasted overnight (O/N) on day 14th and on day 15th oral glucose tolerance test was performed. Following oral glucose tolerance test (OGTT), rats were kept with food and water ad libitum for one day. On day 16th, rats were fasted again O/N and then euthanized. At autopsy, from 5 animals/group, tissues were collected and snap frozen in liquid nitrogen. Blood was collected from cardiac punctures. Plasma was separated from whole blood by centrifugation at 3000 rpm for 20 min immediately after collection of blood and stored at −80° C. until further analysis. […] (quadriceps) skeletal muscles were processed for RNA and protein extraction, followed by quantitative real-time PCR (QRT-PCR) analysis. Two animals from each group were used for photography post autopsy.

O=C1c2c(cc(O)c([C@@H]3O[C@H](CO)[C@@H](O)[C@H](O)[C@H]3O)c2O)O[C@@H](c2ccc(O)c(O)c2)[C@@H]1O [ULMA, (2S,3S)-(+)-3′,4′,5,7-tetrahydroxydihydroflavonol-6-C-β-D-glucopyranoside]
PGC-1α protein level [1]: elevated
UCPs protein level [1]: elevated
displacement of 125I-adiponectin binding by cold ULMA [2]: dose-dependently replaced 125I-adiponectin binding
Final body weight (g) ([3]; Dex + ULMA-1 mg): 176.5 ± 5.9^c g
Survival/group (%) ([3]; Dex + ULMA-1 mg): 73.3%
Final body weight (g) ([3]; Dex + ULMA-5 mg): 192.7 ± 3.8^b,c g
Survival/group (%) ([3]; Dex + ULMA-5 mg): 100%
change in body weight in control animals ([3]; rat, in vivo): did not cause any significant change
